# US20230028403A1, “METHOD WHICH BRINGS BENEFITS TO HEALTH AND/OR GROWTH OF USEFUL PLANTS” (ISHIHARA SANGYO KAISHA, LTD., priority 2019, published 2023)
# Experiments:
# Format in all cases: in vivo
# [1] = test system: field corn (variety: PIONEERDENT 30N34); test: Test Example 4: above-ground height of field corn, pot, 300 L/ha; conditions: dose 120 g/ha; (c) polyoxyethylene hydrogenated castor oil 0.08 w/v %; 14th day
# Description: Upland field soil was put into a […] hectare pot, and seeds of field corn (variety: PIONEERDENT 30N34, variety highly susceptible to component (a)) were sown. When the field corn reached 3.5 to 4.0 leaf stage, an oil-based suspension containing the component (a) and the component (c) (polyoxyethylene hydrogenated castor oil), and a wettable powder containing the component (b) were diluted with water in an amount corresponding to 300 L/ha to prepare spray solutions. The concentration of the component (c) in the spray solution was 0.08 weight/volume percent. The spray solutions were applied to foliage with a small sprayer. On the 14th day after the foliar application, the above-ground height of the field corn was measured, and the height ratio was calculated in accordance with the following formula. The above-ground height in the untreated plot was 75.8 cm.
# (§1) Height ratio (%)=(above-ground height in the treated plot)/(above-ground height in the untreated plot)×100
# [2] = test system: field corn (variety: PIONEERDENT 30N34); test: Test Example 5: above-ground height of field corn, agricultural field, 300 L/ha; conditions: dose 30 g/ha; (c) polyoxyethylene hydrogenated castor oil 0.020 w/v %; 14th day
# Description: In an agricultural field having seeds of field corn (variety: PIONEERDENT 30N34, variety highly susceptible to component (a)) sown, when the field corn reached 3.1 to 3.5 leaf stage, an oil-based suspension containing the component (a) and the component (c) (polyoxyethylene hydrogenated castor oil), and a wettable powder containing the component (b) were diluted with water in an amount corresponding to 300 L/ha to prepare spray solutions, which were applied to foliage with a Teejet 80015VS nozzle. The concentration of the component (c) in the spray solution was 0.020 weight/volume percent. On the 14th day after the foliar application, the above-ground height of the field corn was measured, and the height ratio was calculated in accordance with the following formula. The above-ground height in the untreated plot was 76.7 cm.
# Height ratio (%) =(above-ground height in the treated plot)/(above-ground height in the untreated plot)×100
# [3] = test system: field corn (variety: SNOWDENT SH2933); test: Test Example 6: above-ground height of field corn, pot, 300 L/ha; conditions: dose 30 g/ha; (c) sodium polyoxyethylene alkyl ether phosphate 0.033 w/v %; 14th day
# Description: On the 14th day after the foliar application, the above-ground height of the field corn was measured, and the height ratio was calculated in accordance with the following formula.
# Height ratio (%)=(above-ground height in the treated plot)/(above-ground height in the untreated plot) ×100
# [4] = test system: field corn (variety: SNOWDENT SH2933); test: Test Example 7: above-ground height of field corn, agricultural field, 200 L/ha; conditions: 27th day
# Description: On the 27th day after the foliar application, the above-ground height of the field corn was measured, and the height ratio was calculated in accordance with the following formula.
# as §1
# [5] = test system: field corn (variety: SNOWDENT SH2933); test: Test Example 8: above-ground height of field corn, agricultural field, 500 L/ha; conditions: 28th day
# Description: On the 28th day after the foliar application , the above-ground height of the field corn was measured, and the height ratio was calculated in accordance with the following formula.
# as §1
# [6] = dose 20 g/ha, (c) polyoxyethylene hydrogenated castor oil 0.02 w/v %
# [7] = dose 30 g/ha, (c) polyoxyethylene hydrogenated castor oil 0.03 w/v %
# [8] = dose 40 g/ha, (c) polyoxyethylene hydrogenated castor oil 0.04 w/v %
# [9] = dose 60 g/ha, (c) polyoxyethylene hydrogenated castor oil 0.06 w/v %
# [10] = dose 80 g/ha, (c) polyoxyethylene hydrogenated castor oil 0.08 w/v %
# [11] = dose 120 g/ha, (c) polyoxyethylene hydrogenated castor oil 0.12 w/v %
# [12] = dose 60 g/ha, (c) sodium polyoxyethylene alkyl ether phosphate 0.04 w/v %
# [13] = dose 90 g/ha, (c) sodium polyoxyethylene alkyl ether phosphate 0.06 w/v %
# [14] = dose 120 g/ha, (c) sodium polyoxyethylene alkyl ether phosphate 0.08 w/v %
compound,measurement,setting,value
"COc1cc(OC)nc(NC(=O)NS(=O)(=O)c2ncccc2C(=O)N(C)C)n1 [Component (a), nicosulfuron]",Above-ground height,[1],41.3 cm
same,Height ratio,[1],55%
same,Above-ground height,[2],66.6 cm
same,Height ratio,[2],87%
same,Above-ground height,[3],46.8 cm
same,Height ratio,[3],75%
same,Above-ground height,[4]; [6],125.5 cm
same,Height ratio,[4]; [6],86%
same,Above-ground height,[4]; [7],124.0 cm
same,Height ratio,[4]; [7],84%
same,Above-ground height,[4]; [8],129.9 cm
same,Height ratio,[4]; [8],88%
same,Above-ground height,[4]; [9],122.3 cm
same,Height ratio,[4]; [9],83%
same,Above-ground height,[4]; [10],110.7 cm
same,Height ratio,[4]; [10],75%
same,Above-ground height,[4]; [11],107.4 cm
same,Height ratio,[4]; [11],73%
same,Above-ground height,[5]; [12],107.2 cm
same,Height ratio,[5]; [12],81%
same,Above-ground height,[5]; [13],88.6 cm
same,Height ratio,[5]; [13],67%
same,Above-ground height,[5]; [14],86.3 cm
same,Height ratio,[5]; [14],65%
